From BindingDB's records for patent US10532048 (Seldar Pharma Inc., 2020)

Target: Gastrin-releasing peptide receptor (Homo sapiens, UniProt P30550)
Test: BB2 Receptor Antagonistic Activity
Procedure: A BB2 receptor binding test was carried out using a membrane sample prepared from a human prostate cancer-derived PC-3 cell. The PC-3 cell was cultured using an RPMI-1640 medium containing 5% fetal bovine serum, and then a membrane sample was prepared by the following methods. The cells detached by a trypsin treatment were added with a 50 mM Tris-HCl buffer (pH 7.4, containing 0.2 mg/ml trypsin inhibitor and 0.2 mg/ml benzamidine), and homogenized by Polytron. The cell suspension was centrifuged at 1,500 rpm for 10 minutes, and the supernatant thus obtained was subjected to 1 hour of ultracentrifugation at 37,000×g. The precipitate was suspended in the aforementioned buffer to a concentration of 0.4 mg protein/ml, and stored at −80° C.The BB2 receptor binding test was carried out by the following method, and the receptor antagonistic activity of a compound to be tested was calculated. […] Non-specific binding was measured using 1 μM of bombesin. […] The radioactivity on the filter was measured using a microplate scintillation counter (Top Count, Perkin-Elmer Co., Ltd.).

Chain of Gastrin-releasing peptide receptor (P30550 whole entry): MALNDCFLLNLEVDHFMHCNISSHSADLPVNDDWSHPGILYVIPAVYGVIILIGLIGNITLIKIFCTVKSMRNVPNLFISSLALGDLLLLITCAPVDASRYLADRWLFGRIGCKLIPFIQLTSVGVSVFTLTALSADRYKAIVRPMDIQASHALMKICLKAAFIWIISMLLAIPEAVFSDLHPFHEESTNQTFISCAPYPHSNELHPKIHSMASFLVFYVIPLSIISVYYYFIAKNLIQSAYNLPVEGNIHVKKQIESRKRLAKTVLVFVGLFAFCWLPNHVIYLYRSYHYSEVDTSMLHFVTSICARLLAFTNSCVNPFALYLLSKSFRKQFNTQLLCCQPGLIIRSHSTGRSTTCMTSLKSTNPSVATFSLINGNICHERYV

- IC50: 18.3 nM
Compound: O=C(NCCc1ccccc1)[C@@H]1c2ccccc2C(=O)N([C@H](CO)c2ccccc2)[C@H]1c1ccc(Cl)cc1Cl [US10532048, Example 62]
